What was measured:
[1] = molecular target: Adenosine receptor A2a (Rattus norvegicus, UniProt P30543)
[2] = molecular target: T1, Adenosine receptor A1 (Rattus norvegicus, UniProt P25099)
T1 sequence (P25099 whole entry): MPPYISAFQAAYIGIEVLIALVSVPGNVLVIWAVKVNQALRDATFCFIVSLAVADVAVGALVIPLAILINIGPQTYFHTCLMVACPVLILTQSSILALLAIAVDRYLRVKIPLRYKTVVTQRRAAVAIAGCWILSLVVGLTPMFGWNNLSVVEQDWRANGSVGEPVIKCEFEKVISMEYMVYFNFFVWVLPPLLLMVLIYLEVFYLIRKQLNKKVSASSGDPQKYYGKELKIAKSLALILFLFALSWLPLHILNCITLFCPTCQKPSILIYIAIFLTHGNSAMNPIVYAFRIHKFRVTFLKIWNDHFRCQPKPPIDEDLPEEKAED
Description: Tested for the binding affinity of A1 receptor by displacing the [3H]-PIA in rat brain membranes

[3] = molecular target: T2, Adenosine receptor A3 (Rattus norvegicus, UniProt P28647); test: biochemical
T2 sequence (P28647 whole entry): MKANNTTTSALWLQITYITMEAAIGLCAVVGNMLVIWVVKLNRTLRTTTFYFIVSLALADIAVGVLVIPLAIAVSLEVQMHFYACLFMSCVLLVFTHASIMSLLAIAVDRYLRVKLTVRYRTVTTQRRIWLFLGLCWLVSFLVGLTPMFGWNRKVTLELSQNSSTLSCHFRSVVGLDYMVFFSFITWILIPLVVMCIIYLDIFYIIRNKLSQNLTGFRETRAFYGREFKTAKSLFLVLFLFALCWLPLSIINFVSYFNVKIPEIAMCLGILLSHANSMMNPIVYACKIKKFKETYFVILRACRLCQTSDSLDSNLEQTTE
Description: Tested for the binding affinity of A3 receptor by displacing N6-[[125I]-4-amino-3-iodobenzyl]-adenosine-5''-N-methyluronamide from membranes of CHO cells transfected with rat A3-cDNA

Sequence of Adenosine receptor A2a (P30543 whole entry): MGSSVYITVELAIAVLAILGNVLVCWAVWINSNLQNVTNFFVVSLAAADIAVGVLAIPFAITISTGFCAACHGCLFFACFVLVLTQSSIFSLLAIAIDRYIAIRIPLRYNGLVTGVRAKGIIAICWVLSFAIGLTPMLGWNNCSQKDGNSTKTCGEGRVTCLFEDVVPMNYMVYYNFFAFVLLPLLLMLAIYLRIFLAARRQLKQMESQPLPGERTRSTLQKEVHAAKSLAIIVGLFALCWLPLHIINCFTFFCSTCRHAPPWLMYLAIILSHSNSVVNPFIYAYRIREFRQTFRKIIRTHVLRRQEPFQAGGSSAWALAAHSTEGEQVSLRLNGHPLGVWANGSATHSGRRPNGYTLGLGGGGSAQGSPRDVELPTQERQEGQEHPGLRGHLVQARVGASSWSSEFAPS

Compound	Ki [1] [nM]	Ki [2] [nM]	Ki [3] [nM]
CNC(=O)[C@H]1O[C@@H](n2cnc3c(NCc4ccc(N)c(I)c4)ncnc32)[C@H](O)[C@@H]1O	197	–	–
OC[C@H]1O[C@@H](n2cnc3c(NC4CCCC4)ncnc32)[C@H](O)[C@@H]1O [N6-CYCLOPENTYLADENOSINE]	462	–	–
Nc1ccc(CCNc2ncnc3c2ncn3C2O[C@H](CO)[C@@H](O)[C@H]2O)cc1I (stereo not given in full)	–	2.1	15.5
Nc1ccc(CCNc2ncnc3c2ncn3[C@@H]2O[C@H](CO)[C@@H](O)[C@H]2O)cc1	–	14	–

From ChEMBL document CHEMBL1127377, “2-Substitution of N6-benzyladenosine-5'-uronamides enhances selectivity for A3 adenosine receptors” (J Med Chem, 1994)
